These results are taken from US12703729B2, “GIP agonist compounds and methods” (Zealand Pharma A/S, priority 2014, dated 2026).

pEC50: −log10 of the molar value. Starred links: 1 amine or outer side, 2 acyl side, 3 side chain; linkers in the order of their positions; H or OH if unused. Non-standard residues stand in square brackets, D forms with d. Residues, ends and D or L forms follow the SMILES beside them. Groups on a side chain read outwards from the residue. *: point of attachment. C20 diacid = O=C(O)CCCCCCCCCCCCCCCCCCC(=O)*; γGlu = O=C(O)[C@H](CCC(=O)[*:2])N[*:1]; AEEA = NCCOCCOCC(=O)O; Aib = CC(C)(N)C(=O)O

The term bioavailability denotes the share of a dose that reaches the circulation, judged against a reference dose that is usually intravenous. Low readings indicate little systemic uptake, high ones much systemic uptake. The half-life is how long it takes for the measured level to halve. As a reminder, the Tmax is the time from dosing to the highest level. For orientation: pEC50 means −log10 of the EC50, conventionally taken in molar units. Lower therefore signals a high EC50.

For data set [1] the following is noted: male, C57BL/6J, mouse, in vivo.
The nature of the next data set: in vivo. Conditions: male, C57BL/6J, mouse; for bioavailability: Bioavailability s.c.; for half-life: 200 nmol/kg.
The target of the next data set is T1, human GIP R (Homo sapiens, UniProt P48546).
T1 sequence (P48546 22-466): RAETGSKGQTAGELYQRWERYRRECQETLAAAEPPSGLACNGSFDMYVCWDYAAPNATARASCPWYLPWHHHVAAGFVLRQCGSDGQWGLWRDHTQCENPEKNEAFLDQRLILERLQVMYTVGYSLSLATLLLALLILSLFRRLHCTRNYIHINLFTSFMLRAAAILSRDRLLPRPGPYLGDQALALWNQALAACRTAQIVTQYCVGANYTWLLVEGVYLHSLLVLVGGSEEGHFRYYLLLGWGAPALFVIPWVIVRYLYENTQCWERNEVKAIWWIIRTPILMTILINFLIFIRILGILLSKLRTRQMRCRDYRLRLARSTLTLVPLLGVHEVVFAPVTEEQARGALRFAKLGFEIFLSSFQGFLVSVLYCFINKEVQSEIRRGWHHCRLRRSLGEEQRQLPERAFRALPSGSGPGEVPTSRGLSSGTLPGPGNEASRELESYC
Nature of the data set: cell-based.

In data set [2] the target is T2, human GIP receptor (GIP R) (Homo sapiens, UniProt P48546).
T2 sequence (P48546 22-466): T1 sequence (P48546 22-466)
Nature of the data set: Activity assay at human GIP receptor, cAMP induction (AlphaScreen), Example 3. In general terms: Bead proximity is the source of the signal in Alpha formats.

Data set [3] has as its target human GLP-1 receptor (GLP-1R) (Homo sapiens, UniProt P43220). Description: Activity assay at human GLP-1 receptor, cAMP induction (AlphaScreen), Example 3.
Where [4] appears, read: iv, Terminal elimination half-life T½ i.v.
Where [5] appears, read: sc, Terminal elimination half-life T½ s.c.

human GLP-1 receptor (GLP-1R), sequence (P43220 24-463): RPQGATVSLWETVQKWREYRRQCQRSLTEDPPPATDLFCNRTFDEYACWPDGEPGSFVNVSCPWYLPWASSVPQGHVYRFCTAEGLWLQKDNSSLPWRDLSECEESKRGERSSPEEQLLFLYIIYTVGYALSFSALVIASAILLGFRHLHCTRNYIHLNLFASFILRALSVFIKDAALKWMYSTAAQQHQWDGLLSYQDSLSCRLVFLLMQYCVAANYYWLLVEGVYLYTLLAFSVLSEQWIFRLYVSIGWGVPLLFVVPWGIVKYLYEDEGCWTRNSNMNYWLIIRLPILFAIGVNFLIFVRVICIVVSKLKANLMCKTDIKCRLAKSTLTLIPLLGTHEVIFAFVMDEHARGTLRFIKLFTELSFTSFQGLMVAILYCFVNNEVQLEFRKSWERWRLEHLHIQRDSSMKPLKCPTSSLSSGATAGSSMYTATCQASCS

The compound `CC[C@H](C)[C@H](NC(=O)[C@H](CCCCN)NC(=O)[C@H](CC(=O)O)NC(=O)[C@H](CC(C)C)NC(=O)[C@H](CCC(=O)O)NC(=O)[C@@H](NC(=O)[C@H](CO)NC(=O)[C@H](Cc1ccc(O)cc1)NC(=O)[C@H](CC(=O)O)NC(=O)[C@H](CO)NC(=O)[C@@H](NC(=O)[C@H](Cc1ccccc1)NC(=O)[C@@H](NC(=O)CNC(=O)[C@H](CCC(=O)O)NC(=O)C(C)(C)NC(=O)[C@@H](N)Cc1ccc(O)cc1)[C@@H](C)O)[C@@H](C)CC)[C@@H](C)CC)C(=O)N[C@@H](C)C(=O)N[C@@H](C)C(=O)N[C@@H](CCC(N)=O)C(=O)N[C@@H](CC(=O)O)C(=O)N[C@@H](Cc1ccccc1)C(=O)N[C@H](C(=O)N[C@@H](CC(N)=O)C(=O)N[C@@H](Cc1c[nH]c2ccccc12)C(=O)N[C@@H](CC(C)C)C(=O)N[C@@H](CC(C)C)C(=O)N[C@@H](C)C(=O)NCC(=O)N1CCC[C@H]1C(=O)N[C@@H](CO)C(=O)N[C@@H](CO)C(=O)NCC(=O)N[C@@H](C)C(=O)N1CCC[C@H]1C(=O)N1CCC[C@H]1C(=O)N1CCC[C@H]1C(=O)N[C@@H](CO)C(=O)N[C@@H](CCCCNC(=O)COCCOCCNC(=O)COCCOCCNC(=O)CC[C@H](NC(=O)CCCCCCCCCCCCCCCCCCC(=O)O)C(=O)O)C(N)=O)C(C)C` [Compound 16] (H-Y[Aib]EGTFISDYSIELDKIAAQDFVNWLLAGPSSGAPPPSK([AEEA-AEEA-γGlu-C20 diacid])-NH2) yielded a Bioavailability s.c. in data set [1] of 88%. The “Terminal elimination half-life T½ i.v.” value in data set [1] (iv, 200 nmol/kg) stood at 19.2 h. Moreover, the “Terminal elimination half-life T½ s.c.” value in data set [1] (sc, 200 nmol/kg) was found to be 16.7 h. This compound gave a bioavailability in “in vivo” of 81%. Moreover, the half-life is 23.3 h in the data set “in vivo” (setting [4]) and 23.6 h in the data set “in vivo” (setting [5]). Further, the Tmax in the data set “in vivo” (sc) was 8 h. Also, the pEC50 is 10.80 at human GIP R, 10.92 in data set [2] and below 8.00 in data set [3].
Turning to `CC[C@H](C)[C@H](NC(=O)[C@H](CCCCN)NC(=O)[C@H](CC(=O)O)NC(=O)[C@H](CC(C)C)NC(=O)[C@H](CCC(=O)O)NC(=O)[C@H](CCCCNC(=O)COCCOCCNC(=O)COCCOCCNC(=O)CC[C@H](NC(=O)CCCCCCCCCCCCCCCCCCC(=O)O)C(=O)O)NC(=O)[C@H](CO)NC(=O)[C@H](Cc1ccc(O)cc1)NC(=O)[C@H](CC(=O)O)NC(=O)[C@H](CO)NC(=O)[C@@H](NC(=O)[C@H](Cc1ccccc1)NC(=O)[C@@H](NC(=O)CNC(=O)[C@H](CCC(=O)O)NC(=O)C(C)(C)NC(=O)[C@@H](N)Cc1ccc(O)cc1)[C@@H](C)O)[C@@H](C)CC)C(=O)N[C@@H](C)C(=O)N[C@@H](CCC(N)=O)C(=O)N[C@@H](CCCNC(=N)N)C(=O)N[C@@H](C)C(=O)N[C@@H](Cc1ccccc1)C(=O)N[C@H](C(=O)N[C@@H](CCC(=O)O)C(=O)N[C@@H](Cc1c[nH]c2ccccc12)C(=O)N[C@@H](CC(C)C)C(=O)N[C@@H](CC(C)C)C(=O)N[C@@H](C)C(=O)N[C@@H](CCC(N)=O)C(=O)NCC(=O)N1CCC[C@H]1C(=O)N[C@@H](CO)C(=O)N[C@@H](CO)C(=O)NCC(=O)N[C@@H](C)C(=O)N1CCC[C@H]1C(=O)N1CCC[C@H]1C(=O)N1CCC[C@H]1C(=O)N[C@@H](CO)C(N)=O)[C@@H](C)CC` [Compound 35] (H-Y[Aib]EGTFISDYSK([AEEA-AEEA-γGlu-C20 diacid])ELDKIAQRAFIEWLLAQGPSSGAPPPS-NH2), the bioavailability in “in vivo” was found to be 73%. Also, the half-life in “in vivo” (setting [4]) and in the data set “in vivo” (setting [5]) was 14.5 h in each case. Besides, the Tmax in the data set “in vivo” (sc) came to 4 h. Also, the pEC50 at human GIP R is 11.10; in data set [2] it was 10.96; in data set [3], below 8.52.
Consider `CC[C@H](C)[C@H](NC(=O)[C@H](Cc1ccccc1)NC(=O)[C@H](C)NC(=O)[C@H](CCC(N)=O)NC(=O)[C@H](C)NC(=O)[C@H](C)NC(=O)[C@H](CCCCNC(=O)COCCOCCNC(=O)COCCOCCNC(=O)CN1CCN(C(=O)CCCCCCCCCCCCCCCCCCC(=O)O)CC1)NC(=O)[C@H](CCCCN)NC(=O)[C@H](CC(=O)O)NC(=O)[C@H](CC(C)C)NC(=O)[C@H](CCC(=O)O)NC(=O)[C@@H](NC(=O)[C@H](CO)NC(=O)[C@H](Cc1ccc(O)cc1)NC(=O)[C@H](CC(=O)O)NC(=O)[C@H](CO)NC(=O)[C@@H](NC(=O)[C@H](Cc1ccccc1)NC(=O)[C@@H](NC(=O)CNC(=O)[C@H](CCC(=O)O)NC(=O)C(C)(C)NC(=O)[C@@H](N)Cc1ccc(O)cc1)[C@@H](C)O)[C@@H](C)CC)[C@@H](C)CC)C(=O)N[C@@H](CCC(=O)O)C(=O)N[C@@H](Cc1c[nH]c2ccccc12)C(=O)N[C@@H](CC(C)C)C(=O)N[C@@H](CC(C)C)C(=O)N[C@@H](C)C(=O)N[C@@H](CCC(N)=O)C(=O)NCC(=O)N1CCC[C@H]1C(=O)N[C@@H](CO)C(=O)N[C@@H](CO)C(=O)NCC(=O)N[C@@H](C)C(=O)N1CCC[C@H]1C(=O)N1CCC[C@H]1C(=O)N1CCC[C@H]1C(=O)N[C@@H](CO)C(N)=O` [Compound 41], for which, in “in vivo”, the bioavailability worked out at 70%. Also, the half-life in the data set “in vivo” (setting [4]) is 17.6 h; in the data set “in vivo” (setting [5]), 16.5 h. The Tmax in the data set “in vivo” (sc) stood at 8 h. The results for the negative-log EC50 (pEC50) (on human GIP R; in data set [2]; in data set [3]) were 10.85, 11.00 and below 8.00, respectively.
